From US20230027066A1 (Urovant Sciences GmbH, priority 2019, published 2023)

Biological target: CYP2D6 (Homo sapiens, UniProt P10635)
Test: clinical
Settings: in vivo, 4 mg

CYP2D6, sequence (P10635 whole entry): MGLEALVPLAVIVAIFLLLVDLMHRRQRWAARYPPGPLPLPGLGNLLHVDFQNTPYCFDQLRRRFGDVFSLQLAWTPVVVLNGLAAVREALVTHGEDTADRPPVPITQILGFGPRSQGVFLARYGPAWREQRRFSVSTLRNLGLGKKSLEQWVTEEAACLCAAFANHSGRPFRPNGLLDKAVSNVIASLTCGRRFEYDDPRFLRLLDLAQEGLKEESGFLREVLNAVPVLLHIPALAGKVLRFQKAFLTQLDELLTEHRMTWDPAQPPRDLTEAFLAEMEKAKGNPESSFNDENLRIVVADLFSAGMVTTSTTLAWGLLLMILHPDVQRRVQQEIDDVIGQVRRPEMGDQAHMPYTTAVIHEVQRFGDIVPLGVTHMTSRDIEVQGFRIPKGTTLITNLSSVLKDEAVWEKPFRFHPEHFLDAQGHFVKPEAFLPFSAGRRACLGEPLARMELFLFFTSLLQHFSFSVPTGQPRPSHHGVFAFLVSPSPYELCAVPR

Question: For `Cc1ccc(O)c([C@H](CCN(C(C)C)C(C)C)c2ccccc2)c1` [Tolterodine ER, tolterodine, reference compound], which AUC(0-t) is on record?
Answer: 28.4 ng·h/mL

Question: What about the half-life of the same compound?
Answer: 10 h
